One series concerns U87 cells. As to the kind of experiment: Physiological dye staining of U87 cells (DiBAC4(3), pHrodo Green, LysoSensor Green, Fluo-4 AM). The series is classed as cell-based, human. The protocol:
Dye Staining Protocols. For the Live/Dead assay, 1 μM Calcein Green AM and 0.5 μM ethidium homodimer-1 (L3224, ThermoFisher) were added to PBS along with 10 μg/mL of Hoechst to make the staining solution. Half the media was removed from the human neuronal cells that had been incubated with treatments for 3 days and replaced with staining solution. […] Cells were then incubated for 15 min at 37° C. and imaged. For resting membrane potential staining, DiBAC4(3) was used. U87 cells were seeded at 10,000 cells per mL on Matrigel coated plates as described above. Cells were treated with drugs for 6 days with changes in media every other day. On day 6 the media was removed and washed once with dye buffer consisting of Hank's Balanced Salt Solution (HBSS) with 20 mM HEPES at pH 7.4 and then the staining solution, consisting of dye buffer with 2 μM DiBAC4(3) was added to the cells and allowed to incubate for 30 min at 37° C. The staining solution was then removed and fresh staining solution containing the treatments were added to the cells. For cytoplasmic calcium staining, Fluo-4 AM was used. The staining solution consisted of dye buffer with 4 μM Fluo-4 AM and a 1:1 ratio of Pluronic F-127 (20% in DMSO) and allowed to incubate for 30 min at room temperature. The staining solution was then removed, and fresh dye buffer was added and allowed to incubate for 20 min at 37° C. Then dye buffer containing the treatments were added to the cells. For cytoplasmic pH staining, pHrodo Green was used. The staining solution consisted of dye buffer with a 1:1000 dilution of the pHrodo Green stock and a 1:100 dilution of the PowerLoad concentrate (P35373, ThermoFisher). The cells were allowed to incubate for 30 min at 37° C. Staining solution was removed and washed once with dye buffer then fresh dye buffer containing the treatments were added and allowed to incubate for 5 min at 37° C. Calibration curve was done by instead adding the components of the intracellular pH calibration kit (P35379 ThermoFisher). For lysosomal pH staining, LysoSensor Green was used. The staining solution consisted of dye buffer with a 1 μM dilution of LysoSensor Green DND-187 (L7535 ThermoFisher). The cells were incubated as above and staining solution was removed and replaced with dye buffer containing 2.5 μg/mL Hoechst 33342 for 10 min. Hoechst was removed and cells were washed with dye buffer one time before adding dye buffer containing the treatments. Cells were imaged using an EVOS M7000 system outfitted with a GFP filter cube for stains and a DAPI filter for Hoechst. Images were then analyzed using a CellProfiler pipeline.

The conditions of series [1]: breast cancer xenograft model in immunodeficient mice; cited from earlier work.
The next series relates to NG108-15 cells. Kind of series: Growth and FUCCI assays in NG108-15 cells (cell counts, cell cycle, recovery test). The conditions noted are these: for fold decrease in proliferation compared to control: high serum; for FUCCI cell cycle proportion: NG108-15, day 6.
The conditions of series [2]: human, in vivo; cited from earlier work.
Another series relates to human neuronal cells. Kind of series: Live/Dead assay on human neuronal cells. The series is classed as cell-based. The conditions noted are these: human neurons, 3 day treatment. The procedure: Human neuronal cells were differentiated from human induced neural stem cells (hiNSCs) (passage 7-10), a generous gift from David Kaplan, as described previously. Briefly, hiNSCs were grown on mouse embryonic fibroblast (MEF) feeder cells until ready to differentiate into neurons. Cells were then seeded on Poly-D-Lysine (A3890401, ThermoFisher) and laminin (L2020, Sigma) coated 96 well plates at a density of 128,000 cells/mL. Cells were differentiated in Neurobasal (12348017, ThermoFisher) media supplemented with 2% B27 (17504044, Gibco), 1% Glutamax, and 1% antibiotic-antimycotic for 7 days with media changes every 2 days. At the end of the 7 days the treatments were added in the differentiation media for 3 days.
Dye Staining Protocols. For the Live/Dead assay, 1 μM Calcein Green AM and 0.5 μM ethidium homodimer-1 (L3224, ThermoFisher) were added to PBS along with 10 μg/mL of Hoechst to make the staining solution. Half the media was removed from the human neuronal cells that had been incubated with treatments for 3 days and replaced with staining solution. […] Cells were then incubated for 15 min at 37° C. and imaged. For resting membrane potential staining, DiBAC4(3) was used. U87 cells were seeded at 10,000 cells per mL on Matrigel coated plates as described above. […] Images were then analyzed using a CellProfiler pipeline. […]

Series [3] can be described thus: Reported clinical pharmacokinetics and blood-brain barrier penetrance (literature). The conditions noted are these: human, in vivo; pantoprazole 240 mg/day, if proportional to the 30 mg/day dose.

Broadly, the Cmax is the peak of the concentration-time curve.

Molecules are shown by their SMILES. Several values for one entry are separate records, joined by “and”; a condition that tells them apart may be missing. Equal values may be shown once. Entries after “also recorded” stand apart in the source; their conditions may differ.

Protocol for NG108-15 cells: Cells were plated in 96 well plates at a low confluence and drugs were added fresh every other day for 6 days. Some studies removed the drug at 6 days and added media with no drug for an additional 4 days to test for proliferation. Images of the cells were taken every day and a cell profiler pipeline was used to count the cells and determine the ratio of cells in each part of the cell cycle. […] Cell Culture. […] Cells were disassociated with Accutase and passaged when 70% confluent and maintained at 37° C. with 5% C02. Media was changed every two days. […] All drug screens including controls were done using 0.02% DMSO in the high serum Fluorobrite DMEM.
Growth and FUCCI assays. Both cell lines were plated at 5,000 cells per mL into black-walled flat-bottom 96-well plates coated with 1/50 dilution of Matrigel. Images of cells were taken on Day 0 and every subsequent day for 10 days using a Zeiss Axio1 fitted with an on-stage incubator and kept at 37° C. with 5% C02. A 5× objective was used along with filters for YFP, RFP, and CFP and careful calibration of each plate was done to ensure that the same fields of view were imaged each day. Drugs were added after the initial images were taken and then changed every two days until day 6. For recovery experiments, after imaging on day 6, all drugs were removed, and cells were put into imaging media without any added drugs. This media was changed every two days until day 10. Analysis of growth and snap shots of FUCCI reporters over the 6 days or 10 days was done using a CellProfiler [72]pipeline designed by the Broad. The fractional difference in cell number was calculated by dividing the total number of cells each day by the total number of cells from day 0. The ratio of cells in each cell cycle stage every day was determined by counting all the nuclei of one color and dividing it by the total number of nuclei. Blind quality control was done on all the images to make sure that any fibers or image artifacts were not incorrectly counted by the program.

`O=C(Nc1cc(C(F)(F)F)ccc1O)Nc1cc(C(F)(F)F)ccc1O` [NS1643]: the “resting membrane potential by voltage dye DiBAC4(3)” value in the series with U87 cells (U87, 6 day treated) is on record as “significant hyperpolarization”. In the series with U87 cells (U87, 6 days), the “cytoplasmic calcium levels (Fluo-4AM)” value is given as “increase cytoplasmic calcium levels” and the “lysosomal pH (LysoSensor Green)” value is reported as “dramatic alkalization of the lysosomes”. Besides, the “toxicity on the heart or on normal breast epithelial cells” value in series [1] was “did not show any overt toxicity”. Moreover, the “fold decrease in proliferation compared to control” value in the series on NG108-15 cells (NG108-15, 6 days of treatment, NS1643 at 20 μM) is given as “about 1.6 fold”. In addition, the “fold decrease in proliferation compared to control” value in the series with NG108-15 cells (NG108-15, 6 days of treatment, NS1643 at 50 μM) was roughly 2.4 fold. In addition, the “FUCCI cell cycle proportion” value in the series with NG108-15 cells is “did not seem to affect the cell cycle proportion”.
For the molecule `COc1ccnc(C[S+]([O-])c2nc3ccc(OC(F)F)cc3[nH]2)c1OC` (stereo not drawn) [Pantoprazole, pantoprazole], in the series with U87 cells (U87, 6 days), the “lysosomal pH (LysoSensor Green)” value is reported as “did not show an alkalinization of the lysosome” and the “lysosomes (LysoSensor Green signal)” value was “significant increase in lysosomes”. Also, the “blood brain barrier penetrance” value in series [2] is recorded as 2%. Also, the “toxicity by Live/Dead stain compared to control” value in the series with human neuronal cells is recorded as “slight increase in toxicity that was significant compared to control”. In series [3], the Cmax is 42000 ng/mL and ~110 µM. Moreover, the “cell proliferation compared to control (words)” value in the series on NG108-15 cells (NG108-15, 6 days of treatment) is on record as “very significant decrease in cell proliferation”. The “FUCCI cell cycle proportion” value in the series with NG108-15 cells is “increase in cells arrested at late S phase; also recorded: increases the proportion of cells in early S”. Besides, the “recovery of proliferation after treatment removed” value in the series on NG108-15 cells (NG108-15, drugs removed at day 6, followed to day 10) is listed as “immediately re-entered the cell cycle”.
